Results as given in the CombiSolv-Exp solvation set (Vermeire and Green 2021).

Experiment: solvent given as SMILES

CCOC(C)=O
Settings	solvation free energy, 298 K [kcal/mol]
in Brc1cccc2ccccc12	-3.95
in C1CCOC1	-4.56
in C1COCCO1	-4.49
in C=CCCCCCCCCCCCCCC	-3.23
in CC(=O)N(C)C	-4.23
in CC(=O)OCc1ccccc1	-4.29
in CC(C)CC(C)(C)C	-3.53
in CC(C)CCCC(C)CCCC(C)CCCCC(C)CCCC(C)CCCC(C)C	-3.2
in CC(C)O	-3.9
in CCC(C)=O	-4.49
in CCCC=O	-4.49
in CCCCC(CC)COC(=O)CCCCC(=O)OCC(CC)CCCC	-3.73
in CCCCCC	-3.61
in CCCCCC=CCC=CCCCCCCCC(=O)O	-3.67
in CCCCCCC	-3.53
in CCCCCCCC	-3.4
in CCCCCCCCC=CCCCCCCCC(=O)OCC(COC(=O)CCCCCCCC=CCCCCCCCC)OC(=O)CCCCCCCC=CCCCCCCCC	-3.72
in CCCCCCCCCC	-3.28
in CCCCCCCCCCCCCC	-3.24
in CCCCCCCCCCCCCCCC	-3.23
in CCCCCCCCO	-3.69
in CCCCCO	-3.87
in CCCCCl	-4.32
in CCCCN(C=O)CCCC	-3.96
in CCCCO	-3.97
in CCO	-4.06
in CCOC(=O)c1ccccc1C(=O)OCC	-3.94
in CCOCCO	-4.14
in CCOP(=O)(OCC)OCC	-4.13
in CN1CCCC1=O	-4.16
in CN1CCCCC1=O	-4.16
in CN1CCN(C)C1=O	-3.98
in CN(C)C=O	-4.32
in CNC(C)=O	-4.04
in CO	-4.38
in COP(=O)(OC)OC	-4.28
in CS(C)=O	-3.88
in Cc1ccc(C)cc1	-4.21
in Cc1cccc(C)c1	-4.15
in ClCCCl	-4.71
in ClCCl	-5.22
in Clc1ccccc1	-4.43
in NC=O	-3.61
in O	-2.95
in O=C1CCCCC1	-4.33
in O=CN1CCOCC1	-3.89
in OCCOCCO	-3.53
in [2H]O[2H]	-3.02
in c1ccc2ncccc2c1	-4.07

C=CC=CCC
Settings	solvation free energy, 298 K [kcal/mol]
in C=CCCCCCCCCCCCCCC	-3.64
in CN1CCCC1=O	-3.67
in O	0.75

CCCCC1CCCCC1
Settings	solvation free energy, 298 K [kcal/mol]
in CCC(C)=O	-5.97
in CCO	-5.65
in CN1CCCC1=O	-5.09
in O	1.96
in O=Cc1ccco1	-4.97
in OCCO	-2.38
in OCCOCCO	-3.78

C=C1CC2CCC1C2(C)C (stereo not drawn)
Settings	solvation free energy, 298 K [kcal/mol]
in O	0.52

Cc1ccncc1
Settings	solvation free energy, 298 K [kcal/mol]
in CC(C)CC(C)(C)C	-4.95
in O	-4.94

COc1cccc(O)c1
Settings	solvation free energy, 298 K [kcal/mol]
in O	-7.67

C=CCCC(C)C
Settings	solvation free energy, 298 K [kcal/mol]
in C=CCCCCCCCCCCCCCC	-3.87
in O	1.77

Clc1cc(Cl)c(-c2ccccc2)c(Cl)c1
Settings	solvation free energy, 298 K [kcal/mol]
in O	-2.16

CC(=O)CC(C)=O
Settings	solvation free energy, 298 K [kcal/mol]
in C1CCCCC1	-4.89
in CC(C)O	-5.03
in CCC(C)O	-5.05
in CCCO	-5.03
in CCO	-5.43
in O	-4.84

O=C(O)c1cc([N+](=O)[O-])ccc1Cl
Settings	solvation free energy, 298 K [kcal/mol]
in C1CCOC1	-13.6
in CC(C)(C)O	-13.1
in CC(C)CCO	-12.8
in CC(C)CO	-12.7
in CC(C)O	-13.1
in CC(C)OC(C)C	-12
in CCC(C)O	-12.9
in CCCC(C)O	-12.8
in CCCCCCCCCCO	-12.4
in CCCCCCCCO	-12.6
in CCCCCCCO	-12.6
in CCCCCCO	-12.6
in CCCCCO	-12.8
in CCCCO	-12.9
in CCCCOC(C)=O	-12.4
in CCCO	-13
in CCCOC(C)=O	-12.6
in CCO	-13.2
in CCOC(C)=O	-12.8
in CCOCC	-12.8
in COC(C)=O	-12.9
in O	-9.48

Cc1ccccc1C=O
Settings	solvation free energy, 298 K [kcal/mol]
in O	-3.93

C#C
Settings	solvation free energy, 298 K [kcal/mol]
in C1COCCO1	-1.71
in CC(C)=O	-1.83
in CC(C)CC(C)(C)C	-0.37
in CCCCCC	-0.52
in CCCCO	-0.82
in CN(C)C=O	-1.75
in CO	-1.42
in COC(C)=O	-1.76
in Cc1ccc(C)cc1	-0.8
in ClC(Cl)(Cl)Cl	-0.65
in O	0

C=C(CCC=C(C)C)C1CC=C(C)CC1 (stereo not drawn)
Settings	solvation free energy, 298 K [kcal/mol]
in O	-0.5

Clc1ccc2c(c1)Oc1cc(Cl)c(Cl)c(Cl)c1O2
Settings	solvation free energy, 298 K [kcal/mol]
in O	-3.84

Clc1cccnc1
Settings	solvation free energy, 298 K [kcal/mol]
in O	-4.01

C=C(C)C(=O)O
Settings	solvation free energy, 298 K [kcal/mol]
in O	-6.08

CC(C)(c1ccc(O)cc1)c1ccc(O)cc1
Settings	solvation free energy, 298 K [kcal/mol]
in CCCCCCC	-13
in CCCCCCCC	-12.9
in CCCCCCCCCC	-12.8
in Cc1ccc(C)cc1	-15.5
in Cc1cccc(C)c1	-15.5
in Cc1ccccc1C	-15.6
in O	-14.4

C1CO1
Settings	solvation free energy, 298 K [kcal/mol]
in O	-2.87

C1CCNC1
Settings	solvation free energy, 298 K [kcal/mol]
in C1CCCCC1	-4.19
in CCCCCCCCO	-5.55
in O	-5.48

O=c1[nH]cc(F)c(=O)[nH]1
Settings	solvation free energy, 298 K [kcal/mol]
in O	-16.9

CC(C)CCCO
Settings	solvation free energy, 298 K [kcal/mol]
in CCCCCCCC	-4.84
in CCCCCCCCCC	-4.78

FC(F)(F)C(Cl)Br (stereo not drawn)
Settings	solvation free energy, 298 K [kcal/mol]
in C1CCOC1	-5.01
in C1COCCO1	-4.41
in CC(C)=O	-4.77
in COC(C)(C)C	-4.69
in COC(C)=O	-4.61

Oc1ccc(Cl)cc1
Settings	solvation free energy, 298 K [kcal/mol]
in CC(C)CC(C)(C)C	-6.6
in CCCCCC	-6.91
in CCCCCCC	-6.89
in CCCCCCCC	-6.88
in CCCCCCCCCC	-6.89
in Cc1ccc(C)cc1	-8.29
in Cc1cccc(C)c1	-8.39
in Cc1ccccc1C	-8.48
in O	-7.04
